Test: molar heat capacity at constant pressure
Details: 101.33 kPa

CCC(C)(C)O [2-methylbutan-2-ol]
Details | molar heat capacity at constant pressure [J/K/mol]
84.18 K, Crystal 3 | 59.96
84.41 K, Crystal 3 | 60.87
85.57 K, Crystal 3 | 65.73
86.62 K, Crystal 3 | 61.65
86.85 K, Crystal 3 | 61.55
87.94 K, Crystal 3 | 66.53
89.04 K, Crystal 3 | 62.98
89.26 K, Crystal 3 | 62.98
90.33 K, Crystal 3 | 68.13
91.86 K, Crystal 3 | 64.6
92.09 K, Crystal 3 | 64.56
93.17 K, Crystal 3 | 69.93
94.67 K, Crystal 3 | 66.27
94.91 K, Crystal 3 | 66.32
95.99 K, Crystal 3 | 71.8
97.49 K, Crystal 3 | 67.95
97.72 K, Crystal 3 | 68.07
98.82 K, Crystal 3 | 73.51
100.31 K, Crystal 3 | 70.24
100.54 K, Crystal 3 | 70.6
101.65 K, Crystal 3 | 75.44
103.12 K, Crystal 3 | 72.36
103.36 K, Crystal 3 | 72.54
104.48 K, Crystal 3 | 76.92
105.95 K, Crystal 3 | 73.89
106.18 K, Crystal 3 | 74.04
107.28 K, Crystal 3 | 78.03
108.74 K, Crystal 3 | 75.59
108.97 K, Crystal 3 | 75.81
110.03 K, Crystal 3 | 79.77
111.48 K, Crystal 3 | 77.47
111.7 K, Crystal 3 | 77.66
112.73 K, Crystal 3 | 81.52
114.17 K, Crystal 3 | 79.5
114.38 K, Crystal 3 | 79.61
115.38 K, Crystal 3 | 83.05
116.8 K, Crystal 3 | 81.46
117.02 K, Crystal 3 | 81.54
117.99 K, Crystal 3 | 84.42
119.4 K, Crystal 3 | 83.36
119.61 K, Crystal 3 | 83.37
120.55 K, Crystal 3 | 85.98
121.95 K, Crystal 3 | 85.58
122.15 K, Crystal 3 | 85.21
123.09 K, Crystal 3 | 87.29
124.47 K, Crystal 3 | 87.36
124.66 K, Crystal 3 | 87.39
125.59 K, Crystal 3 | 88.61
126.95 K, Crystal 3 | 89.35
127.13 K, Crystal 3 | 89.35
128.06 K, Crystal 3 | 90.2
129.39 K, Crystal 3 | 91.6
129.57 K, Crystal 3 | 91.64
130.5 K, Crystal 3 | 91.83
131.8 K, Crystal 3 | 96.05
131.98 K, Crystal 3 | 95.7
132.91 K, Crystal 3 | 94.22
134.19 K, Crystal 3 | 97.24
134.35 K, Crystal 3 | 97.17
135.29 K, Crystal 3 | 94.95
136.54 K, Crystal 3 | 98.99
136.7 K, Crystal 3 | 98.94
137.65 K, Crystal 3 | 96.49
138.86 K, Crystal 3 | 102.38
139.01 K, Crystal 3 | 102.19
139.98 K, Crystal 3 | 98.2
141.14 K, Crystal 3 | 106.32
141.29 K, Crystal 3 | 106.03
142.29 K, Crystal 3 | 99.86
143.38 K, Crystal 3 | 112.82
143.53 K, Crystal 3 | 110.46
144.58 K, Crystal 3 | 101.73
148.39 K, Crystal 2 | 89.39
148.47 K, Crystal 2 | 107.13
149.08 K, Crystal 2 | 105.46
150.5 K, Crystal 2 | 120.91
150.6 K, Crystal 2 | 120.49
151.3 K, Crystal 2 | 107.39
152.65 K, Crystal 2 | 120.48
152.74 K, Crystal 2 | 120.32
153.5 K, Crystal 2 | 109.42
154.78 K, Crystal 2 | 120.35
154.87 K, Crystal 2 | 120.25
155.66 K, Crystal 2 | 111.51
156.9 K, Crystal 2 | 120.17
156.98 K, Crystal 2 | 120.02
157.81 K, Crystal 2 | 113.29
159.02 K, Crystal 2 | 121.07
159.09 K, Crystal 2 | 120.89
159.95 K, Crystal 2 | 115.97
161.12 K, Crystal 2 | 121.73
161.19 K, Crystal 2 | 121.42
162.06 K, Crystal 2 | 118.39
163.23 K, Crystal 2 | 122.32
163.28 K, Crystal 2 | 121.93
164.16 K, Crystal 2 | 120.83
165.34 K, Crystal 2 | 123.02
165.36 K, Crystal 2 | 122.85
166.24 K, Crystal 2 | 123.44
167.44 K, Crystal 2 | 123.55
167.45 K, Crystal 2 | 123.69
168.29 K, Crystal 2 | 126.14
169.53 K, Crystal 2 | 124.34
169.57 K, Crystal 2 | 124.68
170.33 K, Crystal 2 | 128.89
171.63 K, Crystal 2 | 125.44
171.7 K, Crystal 2 | 125.8
172.35 K, Crystal 2 | 131.56
173.74 K, Crystal 2 | 126.82
173.85 K, Crystal 2 | 127.21
174.35 K, Crystal 2 | 134.03
175.89 K, Crystal 2 | 128.48
176.02 K, Crystal 2 | 128.7
176.33 K, Crystal 2 | 136.74
178.07 K, Crystal 2 | 130.33
178.22 K, Crystal 2 | 130.54
178.3 K, Crystal 2 | 139.33
180.24 K, Crystal 2 | 141.75
180.29 K, Crystal 2 | 131.97
180.44 K, Crystal 2 | 132.57
182.18 K, Crystal 2 | 143.44
182.53 K, Crystal 2 | 133.47
182.64 K, Crystal 2 | 134.58
184.1 K, Crystal 2 | 145.88
184.82 K, Crystal 2 | 137.28
186.01 K, Crystal 2 | 147.63
186.94 K, Crystal 2 | 141.12
187.9 K, Crystal 2 | 148.63
189 K, Crystal 2 | 143.98
189.78 K, Crystal 2 | 150.78
191 K, Crystal 2 | 146.05
191.66 K, Crystal 2 | 151.3
192.96 K, Crystal 2 | 149.37
193.52 K, Crystal 2 | 152.71
194.88 K, Crystal 2 | 150.75
195.38 K, Crystal 2 | 154.88
196.78 K, Crystal 2 | 151.94
197.23 K, Crystal 2 | 154.68
198.65 K, Crystal 2 | 154.12
199.07 K, Crystal 2 | 156.86
199.87 K, Crystal 2 | 155.64
200.5 K, Crystal 2 | 154.04
200.9 K, Crystal 2 | 157.7
201.17 K, Crystal 2 | 157.49
202.35 K, Crystal 2 | 156.44
202.62 K, Crystal 2 | 157.61
204.18 K, Crystal 2 | 158.51
204.44 K, Crystal 2 | 159.27
206 K, Crystal 2 | 158.34
206.25 K, Crystal 2 | 159.14
207.81 K, Crystal 2 | 159.84
208.06 K, Crystal 2 | 160.6
209.61 K, Crystal 2 | 159.89
209.85 K, Crystal 2 | 161.82
211.4 K, Crystal 2 | 158.72
211.64 K, Crystal 2 | 164.89
217.83 K, Crystal 1 | 141.33
218.04 K, Crystal 1 | 144.15
219.66 K, Crystal 1 | 143.15
219.86 K, Crystal 1 | 142.88
221.49 K, Crystal 1 | 143.51
221.68 K, Crystal 1 | 143.74
223.31 K, Crystal 1 | 144.13
223.5 K, Crystal 1 | 144.13
225.12 K, Crystal 1 | 144.75
225.31 K, Crystal 1 | 144.76
226.93 K, Crystal 1 | 145.48
227.12 K, Crystal 1 | 145.55
228.73 K, Crystal 1 | 146.48
228.92 K, Crystal 1 | 146.48
230.52 K, Crystal 1 | 147.54
230.71 K, Crystal 1 | 147.5
232.31 K, Crystal 1 | 148.37
232.49 K, Crystal 1 | 148.43
234.08 K, Crystal 1 | 149.45
234.27 K, Crystal 1 | 149.58
235.86 K, Crystal 1 | 150.05
236.04 K, Crystal 1 | 150.15
237.63 K, Crystal 1 | 151.12
237.81 K, Crystal 1 | 151.14
239.39 K, Crystal 1 | 152.5
239.57 K, Crystal 1 | 152.39
240.92 K, Crystal 1 | 153.28
241.15 K, Crystal 1 | 153.19
242.15 K, Crystal 1 | 153.94
242.9 K, Crystal 1 | 154.53
243.54 K, Crystal 1 | 154.92
244.65 K, Crystal 1 | 155.65
245.28 K, Crystal 1 | 156.32
246.39 K, Crystal 1 | 157.17
247.02 K, Crystal 1 | 157.69
248.12 K, Crystal 1 | 159.18
249.84 K, Crystal 1 | 160.99
251.56 K, Crystal 1 | 163.84
253.26 K, Crystal 1 | 168.27

Source: the NIST ThermoML archive (doi:10.1021/je060411g)
